Measurements reported in patent US20260070924A1, “INDAZOLE MACROCYCLES AND THEIR USE” (BLOSSOMHILL THERAPEUTICS, INC., priority 2022, published 2026).

Experiments:
phospho-FLT3 (Y589/Y591) [1] = target: phospho-FLT3 (Y589/Y591) (Homo sapiens (Human), UniProt P36888, INS600HVDFREYEYD); assay: Inhibition of kinase phosphorylation by Western Blot in MV-4-11; type: cell-based; conditions: MV-4-11 cells, 4 hour-incubation; read-out: pFLT3 MV-4-11 IC50
Protocol: Inhibition of kinase phosphorylation assay was performed by Western Blot using MV-4-11 and MOLM13 cell lines. Cells were plated in 24 well plates at 1 million cells per well and then treated with compounds at different concentrations, starting at 100 nM, 1:4 titration with DMSO as control. After 4 hour-incubation, cells were washed once with ice-cold PBS, and lysed in RIPA lysis buffer with protease and phosphatase inhibitors. The cell lysates were then sonicated and spun down, and 40 μg of proteins were separated by sodium dodecyl sulfate electrophoresis on a 4 to 12% Bis-Tris polyacrylamide gel and transferred onto nitrocellulose membranes using Bio-Rad Trans-Blot Turbo Transfer System (Bio-Rad). Blocking was performed using 3% BSA or 5% Non-fat dry milk (Fisher Scientific) in TBST (Tris-buffered saline containing 0.05% of Tween 20) (Bio-Rad Laboratories, Inc.). […] Luminescence was detected by LI-COR Odyssey M imaging system and luminescence intensity were quantified using Empiria Studio 2.2 software. Data was analyzed using GraphPad Prism 9 (GraphPad Software, San Diego, CA) to obtain IC50 values.

[2] = system: S6K (PRS6KB1) exon6-8/exon 6-7; assay: Alternative splicing ratio by qPCR in MOLM-13; type: cell-based; conditions: DMSO = 1.02
Protocol: (§1) Alternative splicing ratio of RNA transcripts was measured by qPCR in MV-4-11 and MOLM-13 cell lines. Cells were plated in 24 well plates at 1 million cells per well and then treated with compounds at different concentrations, with DMSO only as control. After 8-hour-incubation, cells were harvested and washed once with ice-cold PBS, and lysed in RNA lysis buffer (Invitrogen). Total RNA was extracted using the RNA Purification Kit (Invitrogen). 2 μg of RNA was used for cDNA synthesis using cDNA synthesis kit (ThermoFisher) and 20 ng of cDNA was used for qPCR using PROFLEX 96-Well PCR System (ThermoFisher).

phospho-FLT3 (Y589/Y591) [3] = target: phospho-FLT3 (Y589/Y591) (Homo sapiens, UniProt P36888, INS600FREYEYD); assay: Inhibition of kinase phosphorylation by Western Blot in MOLM-13; type: cell-based; conditions: MOLM-13 cells, 4 hour-incubation; read-out: pFLT3 MOLM-13 IC50
phospho-FLT3 (Y589/Y591) (Homo sapiens, UniProt P36888, INS600FREYEYD), sequence (P36888 with tags, fused parts or gaps INS600FREYEYD limits assumed): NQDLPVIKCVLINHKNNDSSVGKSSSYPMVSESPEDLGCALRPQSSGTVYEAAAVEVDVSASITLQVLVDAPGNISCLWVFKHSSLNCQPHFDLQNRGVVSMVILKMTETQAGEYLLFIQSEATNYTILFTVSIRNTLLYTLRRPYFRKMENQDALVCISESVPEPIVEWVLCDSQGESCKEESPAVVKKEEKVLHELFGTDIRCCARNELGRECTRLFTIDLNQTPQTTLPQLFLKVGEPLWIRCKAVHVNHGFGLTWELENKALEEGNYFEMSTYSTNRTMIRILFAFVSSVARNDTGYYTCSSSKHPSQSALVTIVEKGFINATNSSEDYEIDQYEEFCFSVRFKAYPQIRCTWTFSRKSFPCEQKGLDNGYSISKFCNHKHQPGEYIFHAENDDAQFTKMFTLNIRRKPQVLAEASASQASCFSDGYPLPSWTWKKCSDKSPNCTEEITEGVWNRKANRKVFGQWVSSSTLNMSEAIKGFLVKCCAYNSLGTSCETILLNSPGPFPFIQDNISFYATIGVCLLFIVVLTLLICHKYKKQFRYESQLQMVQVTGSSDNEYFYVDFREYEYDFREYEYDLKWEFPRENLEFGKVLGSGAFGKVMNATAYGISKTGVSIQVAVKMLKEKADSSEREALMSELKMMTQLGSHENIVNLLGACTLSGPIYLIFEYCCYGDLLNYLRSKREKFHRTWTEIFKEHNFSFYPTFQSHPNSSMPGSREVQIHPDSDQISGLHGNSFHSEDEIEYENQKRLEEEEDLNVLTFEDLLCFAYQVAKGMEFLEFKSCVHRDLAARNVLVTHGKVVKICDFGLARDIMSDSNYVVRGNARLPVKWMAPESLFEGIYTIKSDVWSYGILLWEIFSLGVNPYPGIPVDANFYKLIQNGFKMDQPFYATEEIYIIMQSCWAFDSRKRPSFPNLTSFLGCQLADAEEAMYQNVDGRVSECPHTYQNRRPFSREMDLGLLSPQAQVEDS

FLT3 = FLT3 (Homo sapiens (Human), UniProt P36888); assay: HotSpot radiometric kinase assay (Reaction Biology); type: biochemical
FLT3, sequence (P36888 27-993): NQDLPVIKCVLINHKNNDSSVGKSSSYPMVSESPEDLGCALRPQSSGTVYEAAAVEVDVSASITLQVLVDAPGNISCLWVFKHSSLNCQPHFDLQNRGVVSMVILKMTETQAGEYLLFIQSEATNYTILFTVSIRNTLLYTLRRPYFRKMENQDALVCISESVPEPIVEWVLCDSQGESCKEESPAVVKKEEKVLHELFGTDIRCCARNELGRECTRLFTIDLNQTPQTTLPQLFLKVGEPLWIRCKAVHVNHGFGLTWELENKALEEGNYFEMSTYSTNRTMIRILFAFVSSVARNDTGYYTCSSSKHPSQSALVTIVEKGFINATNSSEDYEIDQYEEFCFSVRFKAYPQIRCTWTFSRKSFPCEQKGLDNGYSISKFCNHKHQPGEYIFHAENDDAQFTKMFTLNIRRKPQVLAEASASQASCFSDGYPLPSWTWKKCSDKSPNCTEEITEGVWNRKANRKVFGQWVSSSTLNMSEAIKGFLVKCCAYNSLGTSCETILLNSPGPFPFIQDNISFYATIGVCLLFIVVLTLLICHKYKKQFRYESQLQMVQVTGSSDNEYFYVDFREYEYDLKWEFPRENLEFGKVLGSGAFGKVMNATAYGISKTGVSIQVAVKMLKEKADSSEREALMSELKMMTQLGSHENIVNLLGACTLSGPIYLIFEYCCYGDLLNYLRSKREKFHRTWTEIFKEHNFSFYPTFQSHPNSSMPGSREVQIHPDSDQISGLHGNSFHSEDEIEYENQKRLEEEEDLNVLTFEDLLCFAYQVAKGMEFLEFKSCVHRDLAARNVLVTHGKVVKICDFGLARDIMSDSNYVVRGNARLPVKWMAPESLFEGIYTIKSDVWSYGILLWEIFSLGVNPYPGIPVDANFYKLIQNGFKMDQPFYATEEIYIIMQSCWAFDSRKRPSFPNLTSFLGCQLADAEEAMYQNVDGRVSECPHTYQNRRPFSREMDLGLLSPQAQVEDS
Protocol: Briefly, specific kinase/substrate pairs along with required cofactors were prepared in reaction buffer; 20 mM Hepes pH 7.5, 10 mM MgCl2, 1 mM EGTA, 0.02% Brij35, 0.02 mg/ml BSA, 0.1 mM Na3VO4, 2 mM DTT, 1% DMSO. Compounds were delivered into the reaction, followed ˜20 minutes later by addition of a mixture of ATP (Sigma, St. Louis MO) and ^33P ATP (Perkin Elmer, Waltham MA) to a final concentration of 10 M. Reactions were carried out at room temperature for 120 min, followed by spotting of the reactions onto P81 ion exchange filter paper (Whatman Inc., Piscataway, NJ). Unbound phosphate was removed by extensive washing of filters in 0.75% phosphoric acid. […] IC50 values and curve fits were obtained using Prism (GraphPad Software).

BCLxS/xL = assay: Alternative splicing ratio by qPCR in MV-4-11; type: cell-based; conditions: DMSO = 1
Protocol: as §1, with “After 8-hour-incubation, cells were harvested and washed once with ice-cold PBS, and lysed in RNA lysis buffer (Invitrogen).” left out
• BCLxS/xL (SYBR Green, IDT)

PIM1 = PIM1 (Homo sapiens (Human), UniProt P11309); assay: HotSpot radiometric kinase assay (Reaction Biology); type: biochemical
PIM1, sequence (P11309 whole entry): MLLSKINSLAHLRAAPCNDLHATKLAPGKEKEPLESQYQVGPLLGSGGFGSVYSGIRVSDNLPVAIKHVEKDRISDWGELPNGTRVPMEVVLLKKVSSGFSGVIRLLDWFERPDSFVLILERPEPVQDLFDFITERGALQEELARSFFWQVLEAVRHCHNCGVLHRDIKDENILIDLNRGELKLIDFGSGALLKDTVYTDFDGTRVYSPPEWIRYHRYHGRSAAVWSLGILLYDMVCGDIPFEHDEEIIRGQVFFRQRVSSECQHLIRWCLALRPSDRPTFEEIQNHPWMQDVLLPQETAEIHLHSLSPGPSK
Protocol: (§2) Briefly, specific kinase/substrate pairs along with required cofactors were prepared in reaction buffer; 20 mM Hepes pH 7.5, 10 mM MgCl2, 1 mM EGTA, 0.02% Brij35, 0.02 mg/ml BSA, 0.1 mM Na3VO4, 2 mM DTT, 1% DMSO. Compounds were delivered into the reaction, followed ˜20 minutes later by addition of a mixture of ATP (Sigma, St. Louis MO) and ^33P ATP (Perkin Elmer, Waltham MA) to a final concentration of […]. Reactions were carried out at room temperature for 120 min, followed by spotting of the reactions onto P81 ion exchange filter paper (Whatman Inc., Piscataway, NJ). Unbound phosphate was removed by extensive washing of filters in 0.75% phosphoric acid. […] IC50 values and curve fits were obtained using Prism (GraphPad Software).

PIM3 = PIM3 (Homo sapiens (Human), UniProt Q86V86); assay: as above; type: biochemical
Protocol: as §2

PIM2 = PIM2 (Homo sapiens (Human), UniProt Q9P1W9); assay: as above; type: biochemical
PIM2, sequence (Q9P1W9 whole entry): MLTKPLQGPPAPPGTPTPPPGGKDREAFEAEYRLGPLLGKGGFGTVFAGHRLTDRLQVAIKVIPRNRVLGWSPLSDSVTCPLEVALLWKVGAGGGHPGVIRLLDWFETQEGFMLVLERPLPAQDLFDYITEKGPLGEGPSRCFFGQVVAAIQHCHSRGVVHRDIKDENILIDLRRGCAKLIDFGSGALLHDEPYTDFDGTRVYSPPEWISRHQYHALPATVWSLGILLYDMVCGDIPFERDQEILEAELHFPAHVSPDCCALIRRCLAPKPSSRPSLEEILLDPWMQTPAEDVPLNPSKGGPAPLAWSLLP
Protocol: as §2

phospho-STAT5 (Y694) = assay: Inhibition of kinase phosphorylation by Western Blot in MOLM-13; type: cell-based; conditions: MOLM-13 cells, 4 hour-incubation; read-out: pSTAT5 MOLM-13 IC50
Protocol: (§3) Inhibition of kinase phosphorylation assay was performed by Western Blot using MV-4-11 and MOLM13 cell lines. Cells were plated in 24 well plates at 1 million cells per well and then treated with compounds at different concentrations, starting at 100 nM, 1:4 titration with DMSO as control. After 4 hour-incubation, cells were washed once with ice-cold PBS, and lysed in RIPA lysis buffer with protease and phosphatase inhibitors. The cell lysates were then sonicated and spun down, and 40 μg of proteins were separated by sodium dodecyl sulfate electrophoresis on a 4 to 12% Bis-Tris polyacrylamide gel and transferred onto nitrocellulose membranes using Bio-Rad Trans-Blot Turbo Transfer System (Bio-Rad). Blocking was performed using 3% BSA or 5% Non-fat dry milk (Fisher Scientific) in TBST (Tris-buffered saline containing 0.05% of Tween 20) (Bio-Rad Laboratories, Inc.). The membranes were incubated overnight with anti-phospho-FLT3 (Y589/Y591) (CST #60413), anti-phospho-STAT5 (Y694) (CST #4322), anti-Phospho-p44/42 MAPK (Erk1/2) (T202/Y204) (CST #9101), anti-Phospho-S6 Ribosomal Protein (S235/236) (CST #4858) and anti-β-Actin (CST #8457) each diluted 1000 times in 3% BSA in TBST. Membranes were washed with TBST and then incubated at room temperature for 1 hour with HRP-labeled anti-rabbit IgG polyclonal antibody (CST #7074) diluted 1000 times in 3% BSA. After TBST washing, blots were developed with a chemiluminescence system (SuperSignal West Femto Maximum Sensitivity Substrate, Pierce #34095). Luminescence was detected by LI-COR Odyssey M imaging system and luminescence intensity were quantified using Empiria Studio 2.2 software. Data was analyzed using GraphPad Prism 9 (GraphPad Software, San Diego, CA) to obtain IC50 values.

[4] = system: Phospho-p44/42 MAPK (Erk1/2) (T202/Y204); assay: as above; type: cell-based; conditions: MOLM-13 cells, 4 hour-incubation; read-out: pERK MOLM-13 IC50
Protocol: as §3

[5] = system: Phospho-S6 Ribosomal Protein (S235/236); assay: as above; type: cell-based; conditions: MOLM-13 cells, 4 hour-incubation; read-out: pS6 MOLM-13 IC50
Protocol: as §3

phospho-FLT3 (Y589/Y591) (Homo sapiens (Human), UniProt P36888, INS600HVDFREYEYD), sequence (P36888 whole entry, looked up, stated change not applied): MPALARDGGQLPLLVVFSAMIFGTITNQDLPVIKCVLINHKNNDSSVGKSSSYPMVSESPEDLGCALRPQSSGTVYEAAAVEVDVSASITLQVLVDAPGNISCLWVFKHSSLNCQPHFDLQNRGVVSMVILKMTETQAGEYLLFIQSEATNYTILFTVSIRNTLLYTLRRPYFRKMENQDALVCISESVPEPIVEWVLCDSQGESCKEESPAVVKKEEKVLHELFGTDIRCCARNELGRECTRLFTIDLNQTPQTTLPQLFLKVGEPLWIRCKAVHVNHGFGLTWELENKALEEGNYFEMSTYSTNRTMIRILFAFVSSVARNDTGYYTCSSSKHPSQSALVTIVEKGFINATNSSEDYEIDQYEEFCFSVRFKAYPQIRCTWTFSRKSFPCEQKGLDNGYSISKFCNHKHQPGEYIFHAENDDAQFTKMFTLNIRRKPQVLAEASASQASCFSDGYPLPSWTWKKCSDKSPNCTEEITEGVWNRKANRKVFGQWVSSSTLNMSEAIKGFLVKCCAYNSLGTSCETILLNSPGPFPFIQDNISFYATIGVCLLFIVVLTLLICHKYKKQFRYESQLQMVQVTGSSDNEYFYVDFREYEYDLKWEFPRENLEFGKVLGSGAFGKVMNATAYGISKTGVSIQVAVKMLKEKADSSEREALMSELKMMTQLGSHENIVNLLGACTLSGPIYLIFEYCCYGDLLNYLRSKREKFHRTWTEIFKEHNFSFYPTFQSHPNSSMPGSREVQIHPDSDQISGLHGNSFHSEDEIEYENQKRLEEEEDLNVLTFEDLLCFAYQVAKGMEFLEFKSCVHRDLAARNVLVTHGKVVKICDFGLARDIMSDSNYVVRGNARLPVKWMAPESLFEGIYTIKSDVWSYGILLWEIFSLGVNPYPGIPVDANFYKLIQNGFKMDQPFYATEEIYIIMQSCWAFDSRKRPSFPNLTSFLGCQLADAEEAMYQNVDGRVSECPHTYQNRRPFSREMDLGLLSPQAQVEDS

CCc1nn(C)c2c1/C=C/c1n[nH]c3ccc(cc13)-c1cnn(C)c1OCCN(C)C2=O [Ex. 6, (17E)-16-ethyl-8,12,14-trimethyl-2,11,12,14-tetrahydro-8H-3,5-ethenotripyrazolo[3,4-f:3′,4′-j:4″,3″-n][1,4]oxazacyclopentadecin-13(10H)-one]
IC50 (phospho-FLT3 (Y589/Y591) [1]): 0.16 nM | Alternative Splicing Ratio S6K Ex. 6-8/Ex. 6-7 ([2]; MOLM-13, 30 nM): 1.60 | Alternative Splicing Ratio S6K Ex. 6-8/Ex. 6-7 ([2]; MOLM-13, 100 nM): 2.71 | Alternative Splicing Ratio S6K Ex. 6-8/Ex. 6-7 ([2]; MOLM-13, 300 nM): 8.08 | IC50 (phospho-FLT3 (Y589/Y591) [3]): 0.32 nM | IC50 (FLT3): 0.088 nM | Alternative Splicing Ratio BCL-xS/xL 6-hour (BCLxS/xL; MV-4-11, 2 nM): 0.7 | Alternative Splicing Ratio BCL-xS/xL 24-hour (BCLxS/xL; MV-4-11, 2 nM): 0.6 | Alternative Splicing Ratio BCL-xS/xL 6-hour (BCLxS/xL; MV-4-11, 10 nM): 1.1 | Alternative Splicing Ratio BCL-xS/xL 24-hour (BCLxS/xL; MV-4-11, 10 nM): 0.9 | Alternative Splicing Ratio BCL-xS/xL 6-hour (BCLxS/xL; MV-4-11, 50 nM): 1.4 | Alternative Splicing Ratio BCL-xS/xL 24-hour (BCLxS/xL; MV-4-11, 50 nM): 1.3 | Alternative Splicing Ratio BCL-xS/xL 6-hour (BCLxS/xL; MV-4-11, 250 nM): 3.7 | Alternative Splicing Ratio BCL-xS/xL 24-hour (BCLxS/xL; MV-4-11, 250 nM): 7.3 | IC50 (PIM1): 2.65 nM | IC50 (PIM3): 0.115 nM | IC50 (PIM2): 5.68 nM | IC50 (phospho-STAT5 (Y694)): 0.72 nM | IC50 [4]: 4.11 nM | IC50 [5]: 2.47 nM
